# Assay results as given in article PMC8571282 (Nature Communications, 2021).
# Where “and” joins values, the source holds several entries; their conditions need not be identical. Equal entries are not always repeated. Where two headings read alike, the source gives them in different places.
# How the values were obtained:
# [1] = cited from earlier work
# [2] = in vitro; conditions: human, % cell viability, 72 h
# [3] = tested on: “M2” primary HAE cells; experiment: Cytotoxicity assay (PrestoBlue), “M2” HAE; conditions: 72 h; for % cell viability: M2 HAE
# [4] = tested on: SARS-CoV-2 WA1/2020; type: in vivo, ferret (Mustela putorius furo)
# [5] = tested on: HEp-2 cells; experiment: Cytotoxicity assay (PrestoBlue), HEp-2; conditions: for % cell viability: 72 h
# [6] = tested on: “F2” primary HAE cells; experiment: Cytotoxicity assay (PrestoBlue), “F2” HAE; conditions: 72 h; for % cell viability: F2 HAE
# [7] = in vitro; conditions: hamster, % cell viability, 72 h
# [8] = type: in vivo, ferret (Mustela putorius furo); conditions: b.i.d.; for Bodyweight, Mean 2 (treated group) / Bodyweight, Mean Diff. (Vehicle vs. treated): Fig 3e; for Temperature, Mean 2 (treated group) / Temperature, Mean Diff. (Vehicle vs. treated): Fig 3d
# [9] = tested on: SARS-CoV-2 VOC γ (BZ/2021); type: in vivo, ferret (Mustela putorius furo)
# [10] = GS-441524 and metabolite concentrations in ferret lung tissue; conditions: single 30 mg/kg oral GS-621763, 24 h
# [11] = tested on: “DF2” primary HAE cells (diseased, asthma); conditions: 72 h
# [12] = tested on: HCT-8 cells; experiment: Cytotoxicity assay (PrestoBlue), HCT-8; conditions: for % cell viability: 72 h
structure (smiles),measurement,setting,value
N#C[C@@]1(c2ccc3c(N)ncnn23)O[C@H](CO)[C@@H](O)[C@H]1O [GS-441524],oral bioavailability (in words),[1]; several species,poor oral bioavailability
same,"viability at 72 h, 3.704 µM","[2]; HEp-2, 3.704 µM",93%
CC(C)C(=O)OCC1OC(C#N)(c2ccc3c(N)ncnn23)C(OC(=O)C(C)C)C1OC(=O)C(C)C (stereo not drawn) [GS-621763],% cell viability,[3]; 0.046 µM,88% and 92%
same,% cell viability,[3]; 1.235 µM,112%
same,% cell viability,[3]; 3.704 µM,115%
same,% cell viability,[3]; 33.333 µM,86% and 83%
same,CC50,[3]; “M2” HAE,39.7 µM
same,"Transform of Nasal turbinate titers, Mean (treated)","[4]; Fig 2f, 20 mg kg-1 b.i.d., sample size 4",2.037
same,"Transform of Nasal turbinate titers, Difference between means (C - A) ± SEM","[4]; Fig 2f, treated minus Vehicle, 20 mg kg-1 b.i.d., unpaired t test",-2.239 ± 0.3026
same,"Transform of Small Intestine copies/gram, Mean (treated)","[4]; Fig 2i, 20 mg kg-1 b.i.d., sample size 4",0
same,"Transform of Small Intestine copies/gram, Difference between means (C - A) ± SEM","[4]; Fig 2i, treated minus Vehicle, 20 mg kg-1 b.i.d., unpaired t test",-1.018 ± 1.018
same,"Transform of Large Intestine copies/gram, Mean (treated)","[4]; Fig 2j, 20 mg kg-1 b.i.d., sample size 4",0
same,"Transform of Large Intestine copies/gram, Difference between means (C - A) ± SEM","[4]; Fig 2j, treated minus Vehicle, 20 mg kg-1 b.i.d., unpaired t test",-1.911 ± 1.104
same,"Transform of Nasal Turbinate RNA copies/g, Mean (treated)","[4]; Fig 2h, 20 mg kg-1 b.i.d., sample size 4",3.868
same,"Transform of Nasal Turbinate RNA copies/g, Difference between means (C - A) ± SEM","[4]; Fig 2h, treated minus Vehicle, 20 mg kg-1 b.i.d., unpaired t test",-2.950 ± 0.3528
same,SARS-CoV-2 RNA copies in lungs,[4]; in vivo,not detected
same,SARS-CoV-2 infectious particles in lungs,[4]; in vivo,109 pfu
same,Virus titers from nasal lavages,[4]; in vivo,9 pfu
same,shed SARS-CoV-2 load in nasal lavages,[4]; in vivo,transiently detectable in lavages of only one ferret
same,"viral RNA copy numbers in turbinates, difference between vehicle and treatment groups",[4]; in vivo,three
same,virus in nasal turbinates 4 days after infection,[4]; in vivo,undetectable
same,increase of oral F compared to GS-441524,"[1]; rats and cynomolgus macaques, ref Mackman et al 2021",greater than 5 fold
same,oral bioavailability (in words),[1]; two relevant animal species including non-human primates,high oral bioavailability
same,% cell viability,"[5]; HEp-2, 0.046 µM, 0.046 µM",67% and 49%
same,% cell viability,"[5]; HEp-2, 3.704 µM, 3.704 µM",107% and 97%
same,CC50,"[5]; HEp-2, 72 h",79.4 µM
same,% cell viability,[6]; 0.046 µM,84% and 81%
same,% cell viability,[6]; 1.235 µM,109%
same,% cell viability,[6]; 3.704 µM,109%
same,% cell viability,[6]; 33.333 µM,87% and 80%
same,CC50,[6]; “F2” HAE,43.8 µM
same,"viability at 72 h, 0.046 µM","[7]; BHK-21, 0.046 µM",89%
same,"viability at 72 h, 1.235 µM","[7]; BHK-21, 1.235 µM",89%
same,"viability at 72 h, 33.333 µM","[7]; BHK-21, 33.333 µM",103%
same,"Bodyweight, Mean 2 (treated group)","[8]; Row 1 (time), 3 mg/kg",100
same,"Bodyweight, Mean Diff. (Vehicle vs. treated)","[8]; Row 1 (time), 3 mg/kg",0
same,"Bodyweight, Mean 2 (treated group)","[8]; Row 1 (time), 10 mg/kg",100
same,"Bodyweight, Mean Diff. (Vehicle vs. treated)","[8]; Row 1 (time), 10 mg/kg",0
same,"Bodyweight, Mean 2 (treated group)","[8]; Row 2 (time), 3 mg/kg",98.83
same,"Bodyweight, Mean Diff. (Vehicle vs. treated)","[8]; Row 2 (time), 3 mg/kg",1.898
same,"Bodyweight, Mean 2 (treated group)","[8]; Row 2 (time), 10 mg/kg",104.7
same,"Bodyweight, Mean Diff. (Vehicle vs. treated)","[8]; Row 2 (time), 10 mg/kg",-3.948
same,"Bodyweight, Mean 2 (treated group)","[8]; Row 3 (time), 3 mg/kg",102.4
same,"Bodyweight, Mean Diff. (Vehicle vs. treated)","[8]; Row 3 (time), 3 mg/kg",-1.11
same,"Bodyweight, Mean 2 (treated group)","[8]; Row 3 (time), 10 mg/kg",103.7
same,"Bodyweight, Mean Diff. (Vehicle vs. treated)","[8]; Row 3 (time), 10 mg/kg",-2.374
same,"Bodyweight, Mean 2 (treated group)","[8]; Row 4 (time), 3 mg/kg",104.1
same,"Bodyweight, Mean Diff. (Vehicle vs. treated)","[8]; Row 4 (time), 3 mg/kg",-1.927
same,"Bodyweight, Mean 2 (treated group)","[8]; Row 4 (time), 10 mg/kg",106.9
same,"Bodyweight, Mean Diff. (Vehicle vs. treated)","[8]; Row 4 (time), 10 mg/kg",-4.724
same,"Bodyweight, Mean 2 (treated group)","[8]; Row 5 (time), 3 mg/kg",105.2
same,"Bodyweight, Mean Diff. (Vehicle vs. treated)","[8]; Row 5 (time), 3 mg/kg",-2.7
same,"Bodyweight, Mean 2 (treated group)","[8]; Row 5 (time), 10 mg/kg",107.9
same,"Bodyweight, Mean Diff. (Vehicle vs. treated)","[8]; Row 5 (time), 10 mg/kg",-5.412
same,"Temperature, Mean 2 (treated group)","[8]; Row 1 (time), 3 mg/kg",38.95
same,"Temperature, Mean Diff. (Vehicle vs. treated)","[8]; Row 1 (time), 3 mg/kg",0.2
same,"Temperature, Mean 2 (treated group)","[8]; Row 1 (time), 10 mg/kg",38.53
same,"Temperature, Mean Diff. (Vehicle vs. treated)","[8]; Row 1 (time), 10 mg/kg",0.625
same,"Temperature, Mean 2 (treated group)","[8]; Row 2 (time), 3 mg/kg",38.75
same,"Temperature, Mean Diff. (Vehicle vs. treated)","[8]; Row 2 (time), 3 mg/kg",-0.075
same,"Temperature, Mean 2 (treated group)","[8]; Row 2 (time), 10 mg/kg",39.03
same,"Temperature, Mean Diff. (Vehicle vs. treated)","[8]; Row 2 (time), 10 mg/kg",-0.35
same,"Temperature, Mean 2 (treated group)","[8]; Row 3 (time), 3 mg/kg",38.78
same,"Temperature, Mean Diff. (Vehicle vs. treated)","[8]; Row 3 (time), 3 mg/kg",-0.1
same,"Temperature, Mean 2 (treated group)","[8]; Row 3 (time), 10 mg/kg",38.85
same,"Temperature, Mean Diff. (Vehicle vs. treated)","[8]; Row 3 (time), 10 mg/kg",-0.175
same,"Temperature, Mean 2 (treated group)","[8]; Row 4 (time), 3 mg/kg",38.93
same,"Temperature, Mean Diff. (Vehicle vs. treated)","[8]; Row 4 (time), 3 mg/kg",-0.275
same,"Temperature, Mean 2 (treated group)","[8]; Row 4 (time), 10 mg/kg",38.73
same,"Temperature, Mean Diff. (Vehicle vs. treated)","[8]; Row 4 (time), 10 mg/kg",-0.075
same,"Temperature, Mean 2 (treated group)","[8]; Row 5 (time), 3 mg/kg",38.73
same,"Temperature, Mean Diff. (Vehicle vs. treated)","[8]; Row 5 (time), 3 mg/kg",-0.15
same,"Temperature, Mean 2 (treated group)","[8]; Row 5 (time), 10 mg/kg",38.2
same,"Temperature, Mean Diff. (Vehicle vs. treated)","[8]; Row 5 (time), 10 mg/kg",0.375
same,SARS-CoV-2 RNA copies in lungs of contacts (Fig 4G),[9]; Contact - GS-621763,not detected
same,"Nasal turbinate RNA, Mean Diff. GS-621763 vs. Contact - GS-621763","[9]; Fig 4e, […], 10 mg/kg b.i.d.",0.9216
same,"Nasal turbinate RNA, Mean Diff. GS-621763 vs. Contact - Vehicle","[9]; Fig 4e, […], 10 mg/kg b.i.d.",-3.233
same,"Nasal turbinate RNA, group mean of Contact - GS-621763 (Transform of Brazil - Nasal Turbinate RNA)","[9]; Fig 4e, […], contacts of GS-621763-treated source animals",4.287
same,"Turbinate titers, Mean Diff. GS-621763 vs. Contact - GS-621763","[9]; Fig 4d, […], 10 mg/kg b.i.d.",0
same,"Turbinate titers, Mean Diff. GS-621763 vs. Contact - Vehicle","[9]; Fig 4d, […], 10 mg/kg b.i.d.",-3.824
same,"Turbinate titers, group mean of Contact - GS-621763 (Transform of Brazil - Turbinate Titers)","[9]; Fig 4d, […], contacts of GS-621763-treated source animals",0.9542
same,Infectious virus titer in nasal lavage of contacts (Fig 4B),[9]; in vivo,5 pfu
same,"Nasal turbinate RNA, Mean Diff. Contact - Vehicle vs. Contact - GS-621763",[9]; in vivo,4.155
same,"Nasal turbinate RNA, Mean Diff. Vehicle vs. Contact - GS-621763",[9]; in vivo,4.881
same,"Turbinate titers, Mean Diff. Contact - Vehicle vs. Contact - GS-621763",[9]; in vivo,3.824
same,"Turbinate titers, Mean Diff. Vehicle vs. Contact - GS-621763",[9]; in vivo,3.511
same,viral RNA in nasal turbinates of contact animals of treated source ferrets,[9]; in vivo,< 10^5 copies/g nasal turbinate
same,virus transmission to untreated direct-contact animals,[9]; in vivo,completely blocked virus transmission
same,GS-443902 levels in respiratory tissues trailing those of intravenous 10 mg/kg remdesivir,[10],approximately fourfold
same,% cell viability,"[11]; DF2 HAE, 1.235 µM",106%
same,% cell viability,"[11]; DF2 HAE, 3.704 µM",113%
same,% cell viability,"[11]; DF2 HAE, 33.333 µM",114%
same,% cell viability,"[11]; human, 100 µM",5%
same,% cell viability,"[12]; HCT-8, 0.046 µM, 0.046 µM",75% and 72%
same,% cell viability,"[12]; HCT-8, 1.235 µM, 1.235 µM",103%
same,% cell viability,"[12]; HCT-8, 33.333 µM, 33.333 µM",96%
same,% cell viability,"[12]; HCT-8, 100 µM, 100 µM",1%
same,CC50,"[12]; HCT-8, 72 h",74.6 µM
same,"viability at 72 h, 33.333 µM","[2]; HEp-2, 33.333 µM",112%
